Like-named read-outs stand apart in the source and are kept apart here. Marks after values point to notes of the source that are not given here.
Legend:
BME-UV monolayer = experiment: Mannitol flux across BME-UV monolayer from Ap-to-BL side; type: in vitro ADME, bovine; conditions: for Effect on flux of mannitol across BME-UV monolayer (monolayer integrity): 200 ng/ml TNF-α
P-glycoprotein [1] = biological target: P-glycoprotein (Bos taurus, UniProt A0A3Q1MB23); experiment: Ap-to-BL flux of digoxin; type: in vitro ADME, bovine; conditions: TNF-α 200 ng/ml, 24 hours exposure; 0.05 μM [3H]-digoxin
bABCB1 mRNA = bABCB1 mRNA expression by quantitative real-time RT-PCR in BME-UV cells; type: cell-based, bovine; conditions: 200 ng/ml TNF-α, 24 hours exposure, vs unexposed cells
P-glycoprotein [2] = experiment: Western blot of P-glycoprotein immunoreactive bands in BME-UV cells; type: cell-based, bovine; conditions: TNF-α 200 ng/ml
[3] = system: mammary epithelial monolayer (BME-UV); conditions: exposure to TNF-α for 8 hours; cited from earlier work

Chain of P-glycoprotein (Bos taurus, UniProt A0A3Q1MB23) (A0A3Q1MB23 1-1267): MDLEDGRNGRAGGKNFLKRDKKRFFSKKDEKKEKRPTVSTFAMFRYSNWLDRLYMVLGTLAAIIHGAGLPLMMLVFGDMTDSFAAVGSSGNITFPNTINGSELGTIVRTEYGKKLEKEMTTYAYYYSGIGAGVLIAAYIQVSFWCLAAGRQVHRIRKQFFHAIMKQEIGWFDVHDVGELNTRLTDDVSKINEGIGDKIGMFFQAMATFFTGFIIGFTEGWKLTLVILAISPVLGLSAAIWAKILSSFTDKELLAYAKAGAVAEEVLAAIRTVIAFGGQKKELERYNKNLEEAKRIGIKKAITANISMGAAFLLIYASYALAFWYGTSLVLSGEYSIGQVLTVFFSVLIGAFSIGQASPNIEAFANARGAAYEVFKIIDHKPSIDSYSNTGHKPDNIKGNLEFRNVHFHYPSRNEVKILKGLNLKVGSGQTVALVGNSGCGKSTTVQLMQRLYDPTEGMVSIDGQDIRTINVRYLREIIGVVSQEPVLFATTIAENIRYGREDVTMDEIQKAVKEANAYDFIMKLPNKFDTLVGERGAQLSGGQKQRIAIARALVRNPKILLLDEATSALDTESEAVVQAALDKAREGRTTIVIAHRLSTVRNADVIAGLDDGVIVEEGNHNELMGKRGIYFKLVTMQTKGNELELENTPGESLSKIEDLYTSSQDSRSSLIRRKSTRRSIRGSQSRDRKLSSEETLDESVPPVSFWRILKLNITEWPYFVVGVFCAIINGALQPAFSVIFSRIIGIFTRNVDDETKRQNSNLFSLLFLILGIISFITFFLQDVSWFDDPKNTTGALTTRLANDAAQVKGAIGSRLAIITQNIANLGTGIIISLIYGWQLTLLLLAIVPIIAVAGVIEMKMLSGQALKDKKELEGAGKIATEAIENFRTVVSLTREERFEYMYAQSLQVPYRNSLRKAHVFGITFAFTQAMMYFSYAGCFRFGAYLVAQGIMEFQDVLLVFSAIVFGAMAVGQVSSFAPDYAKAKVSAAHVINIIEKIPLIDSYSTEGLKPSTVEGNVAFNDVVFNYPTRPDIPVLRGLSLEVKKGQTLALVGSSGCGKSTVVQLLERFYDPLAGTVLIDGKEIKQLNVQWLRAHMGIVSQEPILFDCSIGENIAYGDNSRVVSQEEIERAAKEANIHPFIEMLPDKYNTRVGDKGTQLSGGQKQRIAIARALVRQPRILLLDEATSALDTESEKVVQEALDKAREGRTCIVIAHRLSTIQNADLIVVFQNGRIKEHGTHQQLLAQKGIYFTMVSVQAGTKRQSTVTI

Question: For C[C@H]1O[C@@H](O[C@H]2[C@@H](O)C[C@H](O[C@H]3[C@@H](O)C[C@H](O[C@H]4CC[C@@]5(C)[C@H](CC[C@@H]6[C@@H]5C[C@@H](O)[C@]5(C)[C@@H](C7=CC(=O)OC7)CC[C@]65O)C4)O[C@@H]3C)O[C@@H]2C)C[C@H](O)[C@@H]1O [digoxin], which “Intracellular content of digoxin” value (BME-UV cells; BME-UV cells exposed to TNF-α for 24 hours) is on record?
Answer: 4.6 ± 1.1 × 10^−4 nmol

Question: And the “Intracellular content of digoxin” value (BME-UV cells; BME-UV cells exposed to TNF-α for 72 hrs)?
Answer: 3.0 ± 0.2 × 10^−4 nmol

Question: And the “Intracellular content of digoxin” value (BME-UV cells; unexposed BME-UV cells)?
Answer: 6.3 ± 2.6 × 10^−4 nmol

Question: With OC[C@@H](O)[C@@H](O)[C@H](O)[C@H](O)CO [mannitol] as the molecule, how does the “Mannitol flux, Ap-to-BL” value (BME-UV monolayer; BME-UV exposed to TNF-α 200 ng/ml for 24 hr (TNF-24H)) read?
Answer: 15.5 × 10^−3 ^b nmol/cm^2/hr

Question: And the “Mannitol flux, Ap-to-BL” value (BME-UV monolayer; BME-UV exposed to TNF-α 200 ng/ml for 72 hr (TNF-72H))?
Answer: 14.1 × 10^−3 ^b nmol/cm^2/hr

Question: And the “Mannitol flux, Ap-to-BL” value (BME-UV monolayer; BME-UV exposed to TNF-α 200 ng/ml for 120 hr (TNF-120H))?
Answer: 9.6 × 10^−3 ^a nmol/cm^2/hr

Question: What about the “Flux value of mannitol” value (BME-UV monolayer; TNF-α exposed monolayers for 24 hours) of the same molecule?
Answer: 15.5 ± 0.8 × 10^−6 μmol/cm^2 per hour

Question: What about the “Mannitol flux, Ap-to-BL” value (BME-UV monolayer; Untreated BME-UV monolayer, 2 μM [14C]-mannitol) of the same molecule?
Answer: 6.5 × 10^−3 ^a nmol/cm^2/hr

Question: And the “Flux value of mannitol” value (BME-UV monolayer; unexposed monolayers)?
Answer: 6.5 ± 0.7 × 10^−6 μmol/cm^2 per hour

Question: For TNF-α, which “Effect on flux of mannitol across BME-UV monolayer (monolayer integrity)” value (BME-UV monolayer; 24 and 72 hours exposure) is on record?
Answer: increased significantly

Question: And the “Effect on flux of mannitol across BME-UV monolayer (monolayer integrity)” value (BME-UV monolayer; 120 hours exposure)?
Answer: indistinguishable from untreated

Question: And the “Change in Ap-to-BL flux of digoxin” value (P-glycoprotein [1])?
Answer: significantly decreased

Question: And the “Change in bABCB1 mRNA expression” value (bABCB1 mRNA)?
Answer: significant increase

Question: What about the “Change in P-glycoprotein immunoreactive level” value (P-glycoprotein [2]; 24 hours exposure) of the same molecule?
Answer: significant increase

Question: And the “Change in P-glycoprotein immunoreactive level” value (P-glycoprotein [2]; 72 hours exposure)?
Answer: maximum observed effect

Question: What about the “Change in P-glycoprotein immunoreactive level” value (P-glycoprotein [2]; 120 hours exposure, lower than at 72 hours) of the same molecule?
Answer: increased significantly

Question: What about the “Decrease in Rte value” [3] of the same molecule?
Answer: 30%

Reference: publication PMC3034978 (Biopharmaceutics & drug disposition, 2010)
